The target of series [1] is Ba/F3_EGFR del19/T790M/C797S cells (Homo sapiens, UniProt P00533, T790M/C797S, cells depend on it, form not given). Put plainly: Ba/F3_EGFR (del19-T790M-C797S) cell proliferation inhibition, CTG, method 1. It is filed as cell-based. The following applies: 700 cells/well, 72 h, read-out: Ba/F3_EGFR (del19-T790M-C797S) cell proliferation inhibition (IC50 value) Method 1. The method, then:
The cells were cultured in a 37° C., 5% CO2 incubator.
Cell plating and compound treatment: 1) Cells are routinely cultured until the cell saturation is 80%-90%, and when the number reaches the requirement, the cells are collected. 2) Resuspend in the corresponding fresh medium, take a small amount of cells to count, and prepare a cell suspension with a suitable density. 3) Inoculate the cell suspension into a 384-well plate at 700 cells/well, 30 μL per well. 4) Use Echo to add the compound to the corresponding cell well. The maximum starting concentration of the compound is 1-10 μM, 3 folds dilution, 8 concentrations.
CTG method detection: 1) Add 30 μL of CTG reagent (CelltiterGlo kit) to each well, and let it stand for 30 minutes at 37° C. and 5% CO2 in the dark. 2) Use Envision instrument to read the chemiluminescence signal value.
Data analysis: IC50 results are analyzed by GraphPad Prism 6 software. […] X: log value of compound concentration; Y: inhibition rate (% inhibition); inhibition rate (% inhibition)=(blank control well reading−compound well reading)/(blank control well reading−positive control reading)×100.

The next series addresses EGFR (C797S) (Homo sapiens, UniProt P00533, C797S). Put plainly: EGFR (C797S) kinase activity inhibition, Lantha screen Assay. It is filed as biochemical. To be noted: kinase 10 nM, ATP 0.1 μM. The method, then:
1. EGFR (C797S) Kinase Activity Inhibition Experiment: The Lantha screen Assay method was used to test the inhibitory activity of the compounds at a kinase EGFR (C797S) concentration of 10 nM and an ATP concentration of 0.1 μM. The control samples were Staurosporine. Experimental Steps: […] 2) Control sample Staurosporine and test samples preparation: Staurosporine and the compounds of the embodiment of the present invention are formulated into a gradient concentration solution in 100% DMSO, and diluted to 10% DMSO with the above-mentioned buffer, and added to a 384-well plate. For example, if the initial concentration of the compound is 10 μM, 100% DMSO is used to prepare a 1000 μM solution, and 10 concentration gradients are diluted, and 100 nL solution is transferred to a 384-well plate with Echo*LIQUID HANDLE RS (LABCYTE, USA). […] Transfer 5 μL to the 384-well plate and incubate with the compound for 10-15 minutes. […] Transfer 5 μL to the 384-well plate to initiate the reaction, and incubate at room temperature for 30 minutes. [table] 5) Use TR-Fret dilution buffer to prepare 2-fold detection solution. The final concentration of Antibody is 2 nM and the final concentration of EDTA is 10 mM. Transfer 10 μL of detection solution to the reaction wells of the 384-well plate, shake and mix, and incubate at room temperature for 60 min. 6) Read the ratio of excitation at 340 nm and emission at 520 nm to 495 nm on Envision, and calculate the inhibition rate. 7) Fit IC50 with XL-fit software.

In the next series the target is MAP4K1 (HPK1) (Homo sapiens, UniProt Q92918). Put plainly: MAP4K1 (HPK1) kinase activity inhibition, Caliper mobility shift assay. The following applies: kinase 1.25 nM, ATP 10.1 μM. Type of series: biochemical. The method, then: 4. MAP4K1 (HPK1) Kinase Activity Inhibition Experiment: Caliper mobility shift assay was used to detect the inhibitory effect of the compound on MAP4K1 (HPK1) kinase activity. The test concentration of the compound starts at 500 nM, and is diluted 5 folds into 5 concentration points. Use a dispenser Echo 550 to transfer 250 nL 100-fold final concentration of the compound to the target plate 3573, add 10 μL of MAP4K1 (HPK1) kinase solution with a final concentration of 1.25 nM, and incubate for 10 minutes at room temperature (the negative control well contains 10 μL kinase buffer and 250 nL 100% DMSO; the positive control well contains 10 μL kinase solution and 250 nL 100% DMSO). On the kinase MAP4K1 (HPK1), add 15 μL of ATP with a final concentration of 10.1 μM and 3 μM substrate peptide No. 25 mixed solution to react for 120 minutes. Add 30 μL of stop solution containing EDTA to stop the kinase reaction. Use Caliper EZ Reader to read the conversion rate. Inhibition rate %=(Average positive control conversion rate %−Sample conversion rate %/(Average positive control conversion rate %−Average negative control conversion rate %). Among them: negative control wells represent the conversion rate readings without enzyme activity; positive control wells represent the conversion rate readings of wells without compound inhibition. Take the log value of the concentration as the X-axis, and the percentage inhibition rate on the Y-axis. Log (inhibitor) vs. response—Variable slope of analysis software GraphPad Prism 5 was used to fit the curve to obtain the IC50 value of each compound on the enzyme activity. Calculation formula: Y=Bottom+(Top−Bottom)/(1+10 ^((Log IC50−X)*HillSlope)).

Another series concerns the target ALK (Homo sapiens, UniProt Q9UM73). The series can be described thus: ALK kinase activity inhibition, Caliper mobility shift assay, method 1. Type of series: biochemical. The protocol: 2. ALK Kinase Activity Inhibition Experiment: Method 1: In vitro enzymatic activity of ALK was measured using Caliper mobility shift assay. […] Add 10 μL of 2.5-fold enzyme solution and incubate at room temperature for 10 minutes, then add 10 μL of 2.5-fold substrates (Peptide FAM-P22 and ATP) solution. […] Read conversion rate data on Caliper EZ Reader II (Caliper Life Sciences). Convert the conversion rate into inhibition rate (% inhibition=(max−conversion rate)/(max−min)*100). Max refers to the conversion rate of the DMSO control, and min refers to the conversion rate without enzyme activity. With the compound concentration and inhibition rate on the abscissa and ordinate, draw the curve, use XLFit excel add-in version 5.4.0.8 software to fit the curve and calculate the IC50.

For the next series, the target named is EGFR (T790M/L858R/C797S) (Homo sapiens, UniProt P00533, C797S/L858R/T790M). Put plainly: EGFR (T790M/L858R/C797S) kinase activity inhibition, Caliper mobility shift assay. It is filed as biochemical. To be noted: kinase 2.5 nM, ATP 40 μM. The protocol: The basic method is the same as ALK activity test method 2. The test concentration of the compound starts at 2 μM, and is diluted 5 folds into 6 (7 for individual compounds) concentration points. […] Add 30 μL of stop solution containing EDTA to stop the kinase reaction. Use Caliper EZ Reader to read the conversion rate. Inhibition rate %=(Average positive control conversion rate %−Sample conversion rate %/(Average positive control conversion rate %−Average negative control conversion rate %). Among them: negative control wells represent the conversion rate readings without enzyme activity; positive control wells represent the conversion rate readings of wells without compound inhibition. Take the log value of the concentration as the X-axis, and the percentage inhibition rate on the Y-axis. Log (inhibitor) vs. response—Variable slope of analysis software GraphPad Prism 5 was used to fit the curve to obtain the IC50 value of each compound on the enzyme activity. Calculation formula: Y=Bottom+(Top−Bottom)/(1+10^((Log IC50−X)*HillSlope)).

Series [2] is described as follows: Pharmacokinetic study in rats after intragastrical administration. It is filed as in vivo. The following applies: male, rat, plasma, po, SD rats; for AUC(0-t): read-out: AUC0-24 h. The method, then:
Example 55: Pharmacokinetic Study in Rats
Instruments: XEVO TQ-S LC/MS instrument produced by Waters. All measurement data is collected and processed by Masslynx V4.1 software, and the data is calculated and processed by Microsoft Excel. Using WinNonLin 8.0 software, the statistical moment method was used to calculate the pharmacokinetic parameters. Mainly include kinetic parameters Tmax, T1/2, Cmax, AUClast etc. […] Injection volume: 5 μL.
Animals: 3 male SD rats with a weight range of 200-220 g. After purchase, they will be kept in the laboratory of the Experimental Animal Center for 2 days and then used. They will be fasted for 12 hours predose and 4 hours after dosing. Drinking water is free during the test. After the rats were gavage, blood samples were taken according to the established time point.
Solvent: 0.5% Methylcellulose (aqueous solution containing 0.4% Tween 80 and 1% ethanol). Preparation of the solution for intragastrical administration: accurately weigh the compound, add it to the solvent, and ultrasonically at room temperature for 5 minutes to completely dissolve the drug, and prepare a 0.3 mg/ml medicinal solution.
Pharmaceutical samples: representative compounds of the structure shown in the patented formula (I) of the present invention, generally, multiple samples with similar structures (with a molecular weight difference of more than 2 units) are taken, accurately weighed, and administered together (cassette PK). In this way, multiple compounds can be screened at the same time and their oral absorption rates can be compared. A single administration was also used to study the pharmacokinetics of the drug sample in rats.
After intragastrical administration, blood was taken from the orbit at 0.25, 0.5, 1, 2, 4, 9, 12 and 24 hours, and placed in a plastic centrifuge tube pretreated with sodium heparin. After centrifugation, the supernatant plasma was used for LC-MS/MS analysis.
Accurately weigh the compounds to prepare different concentrations, perform quantitative analysis on mass spectrometry to establish a standard curve, and then test the concentration of the above-mentioned compound in the plasma to obtain the compound concentration at different time points. All measurement data are collected and processed by relevant software, and the statistical moment method is used to calculate the pharmacokinetic parameters (mainly including kinetic parameters Tmax, T1/2, Cmax, AUClast etc). The results are as follows:
Table 7: Pharmacokinetic Parameters of the Compounds after Intragastrical Administration in SD Rats

Read-outs that look alike come from different tables or passages of the source.

EGFR (C797S), sequence (P00533 25-1210 C797S): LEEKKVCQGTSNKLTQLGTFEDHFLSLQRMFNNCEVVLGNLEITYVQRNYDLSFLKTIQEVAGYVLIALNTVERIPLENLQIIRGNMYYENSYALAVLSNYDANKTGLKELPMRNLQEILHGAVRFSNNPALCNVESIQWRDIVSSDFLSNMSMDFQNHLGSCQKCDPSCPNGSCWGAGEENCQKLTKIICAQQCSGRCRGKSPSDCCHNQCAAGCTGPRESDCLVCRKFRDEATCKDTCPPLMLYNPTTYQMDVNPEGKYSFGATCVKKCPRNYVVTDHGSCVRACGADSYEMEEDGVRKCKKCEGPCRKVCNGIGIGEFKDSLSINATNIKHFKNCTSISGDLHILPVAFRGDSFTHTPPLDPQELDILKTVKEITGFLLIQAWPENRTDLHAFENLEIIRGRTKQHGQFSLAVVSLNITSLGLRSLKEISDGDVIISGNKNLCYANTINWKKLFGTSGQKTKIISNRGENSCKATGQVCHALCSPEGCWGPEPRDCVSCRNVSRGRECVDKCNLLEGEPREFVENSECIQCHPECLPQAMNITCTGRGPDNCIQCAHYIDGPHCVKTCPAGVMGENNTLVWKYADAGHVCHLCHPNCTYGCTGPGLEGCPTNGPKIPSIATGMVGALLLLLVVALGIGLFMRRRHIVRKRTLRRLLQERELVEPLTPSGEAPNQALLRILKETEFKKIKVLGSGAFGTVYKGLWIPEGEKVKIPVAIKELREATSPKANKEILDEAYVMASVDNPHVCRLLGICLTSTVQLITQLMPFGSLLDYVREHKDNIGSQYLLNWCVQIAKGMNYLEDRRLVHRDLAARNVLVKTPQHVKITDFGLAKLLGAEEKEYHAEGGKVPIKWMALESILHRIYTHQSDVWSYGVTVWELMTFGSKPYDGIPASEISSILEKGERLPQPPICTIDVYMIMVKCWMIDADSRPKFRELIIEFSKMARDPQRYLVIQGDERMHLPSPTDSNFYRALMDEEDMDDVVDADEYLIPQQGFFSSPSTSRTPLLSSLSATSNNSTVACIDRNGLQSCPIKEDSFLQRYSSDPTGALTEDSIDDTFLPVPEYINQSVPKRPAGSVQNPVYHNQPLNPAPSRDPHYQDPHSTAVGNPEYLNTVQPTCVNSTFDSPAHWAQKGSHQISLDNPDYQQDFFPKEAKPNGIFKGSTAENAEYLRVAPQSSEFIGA
EGFR (T790M/L858R/C797S), sequence (P00533 25-1210 T790M/C797S/L858R): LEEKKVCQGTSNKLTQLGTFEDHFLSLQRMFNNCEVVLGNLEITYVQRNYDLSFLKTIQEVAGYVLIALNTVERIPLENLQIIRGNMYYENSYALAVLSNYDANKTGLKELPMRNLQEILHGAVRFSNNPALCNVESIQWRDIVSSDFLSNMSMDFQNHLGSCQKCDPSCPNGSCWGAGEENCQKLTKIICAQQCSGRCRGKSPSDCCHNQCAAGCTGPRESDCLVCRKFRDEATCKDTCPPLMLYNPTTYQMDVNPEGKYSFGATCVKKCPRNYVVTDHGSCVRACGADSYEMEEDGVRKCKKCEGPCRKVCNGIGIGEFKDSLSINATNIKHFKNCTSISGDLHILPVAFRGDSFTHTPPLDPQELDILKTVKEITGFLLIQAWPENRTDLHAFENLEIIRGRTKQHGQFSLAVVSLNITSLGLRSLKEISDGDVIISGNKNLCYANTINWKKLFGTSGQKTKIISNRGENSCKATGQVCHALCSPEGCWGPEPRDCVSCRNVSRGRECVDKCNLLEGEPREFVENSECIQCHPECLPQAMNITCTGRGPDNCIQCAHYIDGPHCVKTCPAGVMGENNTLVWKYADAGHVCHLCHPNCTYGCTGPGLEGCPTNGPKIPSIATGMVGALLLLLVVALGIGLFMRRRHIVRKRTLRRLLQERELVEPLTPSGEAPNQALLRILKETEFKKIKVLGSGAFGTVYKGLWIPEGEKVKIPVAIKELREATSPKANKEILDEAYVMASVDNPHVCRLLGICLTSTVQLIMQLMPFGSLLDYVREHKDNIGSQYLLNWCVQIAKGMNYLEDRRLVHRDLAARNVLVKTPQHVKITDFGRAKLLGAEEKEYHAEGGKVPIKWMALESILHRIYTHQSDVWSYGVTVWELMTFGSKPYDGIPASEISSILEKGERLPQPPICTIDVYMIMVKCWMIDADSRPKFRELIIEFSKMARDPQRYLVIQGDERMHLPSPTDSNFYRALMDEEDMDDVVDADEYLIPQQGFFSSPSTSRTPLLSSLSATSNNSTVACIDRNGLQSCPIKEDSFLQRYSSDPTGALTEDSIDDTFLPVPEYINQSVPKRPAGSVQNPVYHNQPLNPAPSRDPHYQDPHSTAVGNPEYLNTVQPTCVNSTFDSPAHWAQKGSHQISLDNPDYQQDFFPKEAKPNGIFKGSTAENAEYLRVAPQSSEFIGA
ALK, sequence (Q9UM73 19-1620): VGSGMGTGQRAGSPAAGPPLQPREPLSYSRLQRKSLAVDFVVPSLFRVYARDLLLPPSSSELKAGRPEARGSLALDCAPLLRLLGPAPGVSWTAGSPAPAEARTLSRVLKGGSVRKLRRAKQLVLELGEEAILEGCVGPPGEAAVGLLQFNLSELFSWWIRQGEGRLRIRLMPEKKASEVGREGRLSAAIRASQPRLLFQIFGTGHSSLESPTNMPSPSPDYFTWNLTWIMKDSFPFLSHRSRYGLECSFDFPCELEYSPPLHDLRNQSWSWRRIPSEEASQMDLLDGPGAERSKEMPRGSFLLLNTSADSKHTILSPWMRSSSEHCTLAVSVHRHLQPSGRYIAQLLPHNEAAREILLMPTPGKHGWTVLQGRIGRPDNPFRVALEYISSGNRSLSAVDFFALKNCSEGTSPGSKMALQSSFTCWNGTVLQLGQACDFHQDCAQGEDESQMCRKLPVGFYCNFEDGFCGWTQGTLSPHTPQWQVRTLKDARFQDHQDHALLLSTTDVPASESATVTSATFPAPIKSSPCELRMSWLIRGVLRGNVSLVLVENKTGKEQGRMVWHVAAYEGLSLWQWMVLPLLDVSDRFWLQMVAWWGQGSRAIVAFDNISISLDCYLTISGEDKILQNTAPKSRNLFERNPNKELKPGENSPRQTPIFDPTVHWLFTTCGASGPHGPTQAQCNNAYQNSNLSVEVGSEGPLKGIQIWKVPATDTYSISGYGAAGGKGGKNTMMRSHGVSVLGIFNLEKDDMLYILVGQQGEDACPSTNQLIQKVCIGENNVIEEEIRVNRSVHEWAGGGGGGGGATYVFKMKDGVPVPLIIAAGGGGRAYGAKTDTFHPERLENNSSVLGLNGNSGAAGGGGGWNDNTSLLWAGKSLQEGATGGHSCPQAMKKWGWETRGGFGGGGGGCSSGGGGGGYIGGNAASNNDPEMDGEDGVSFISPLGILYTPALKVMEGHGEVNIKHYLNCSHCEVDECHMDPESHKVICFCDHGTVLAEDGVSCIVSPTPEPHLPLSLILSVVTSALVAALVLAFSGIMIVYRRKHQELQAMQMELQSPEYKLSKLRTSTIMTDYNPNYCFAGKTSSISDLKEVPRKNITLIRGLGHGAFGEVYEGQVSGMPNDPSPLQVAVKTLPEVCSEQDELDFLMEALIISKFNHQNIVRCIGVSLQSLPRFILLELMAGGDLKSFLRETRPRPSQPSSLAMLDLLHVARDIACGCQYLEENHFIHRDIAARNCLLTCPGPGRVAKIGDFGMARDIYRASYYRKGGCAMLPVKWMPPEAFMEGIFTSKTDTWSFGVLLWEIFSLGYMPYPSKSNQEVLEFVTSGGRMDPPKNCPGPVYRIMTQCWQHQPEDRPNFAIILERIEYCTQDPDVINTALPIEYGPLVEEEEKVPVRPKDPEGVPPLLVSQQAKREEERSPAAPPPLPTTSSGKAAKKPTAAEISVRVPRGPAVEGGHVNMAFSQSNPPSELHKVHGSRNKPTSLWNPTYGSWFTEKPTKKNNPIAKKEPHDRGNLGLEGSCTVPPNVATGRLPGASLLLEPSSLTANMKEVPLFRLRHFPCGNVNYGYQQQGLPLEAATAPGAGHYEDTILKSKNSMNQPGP
MAP4K1 (HPK1), sequence (Q92918 whole entry): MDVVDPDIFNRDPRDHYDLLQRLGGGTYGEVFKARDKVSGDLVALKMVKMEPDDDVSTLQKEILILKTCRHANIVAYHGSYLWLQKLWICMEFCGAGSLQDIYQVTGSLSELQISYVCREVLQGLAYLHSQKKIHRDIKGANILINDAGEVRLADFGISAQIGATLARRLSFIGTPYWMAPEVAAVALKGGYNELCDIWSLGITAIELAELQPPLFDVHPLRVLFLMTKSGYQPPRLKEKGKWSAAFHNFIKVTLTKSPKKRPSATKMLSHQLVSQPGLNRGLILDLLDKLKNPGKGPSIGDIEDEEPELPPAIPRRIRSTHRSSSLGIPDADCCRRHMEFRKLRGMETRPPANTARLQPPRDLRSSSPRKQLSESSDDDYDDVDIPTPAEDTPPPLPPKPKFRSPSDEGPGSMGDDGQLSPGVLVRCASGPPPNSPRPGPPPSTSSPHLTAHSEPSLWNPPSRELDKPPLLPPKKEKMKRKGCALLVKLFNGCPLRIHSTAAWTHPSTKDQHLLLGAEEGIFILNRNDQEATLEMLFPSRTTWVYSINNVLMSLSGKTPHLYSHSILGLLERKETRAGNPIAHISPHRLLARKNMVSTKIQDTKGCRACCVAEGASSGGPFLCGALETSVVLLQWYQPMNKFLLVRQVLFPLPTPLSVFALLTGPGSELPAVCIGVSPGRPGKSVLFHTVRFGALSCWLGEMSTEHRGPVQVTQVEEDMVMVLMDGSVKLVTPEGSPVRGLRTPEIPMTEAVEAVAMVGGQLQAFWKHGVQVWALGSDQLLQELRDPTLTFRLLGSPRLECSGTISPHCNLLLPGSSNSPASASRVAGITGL

As a reminder, the IC50 is the point on the concentration scale where inhibition reaches its midpoint. Consider `CP(C)(=O)c1ccccc1Nc1nc(Nc2ccc3c(c2)OC[C@H]2COCCN32)ncc1Cl` [Compound 12R], for which the GI50 in series [1] fell in the range of 20 to 100 nM. Moreover, the IC50 was 50 to 250 nM against EGFR (C797S), no more than 1 nM on MAP4K1 (HPK1) and 50 to 250 nM at ALK.
For `C=CC(=O)N1CCC(N2CCN3c4ccc(Nc5ncc(Cl)c(Nc6ccccc6P(C)(C)=O)n5)cc4OC[C@H]3C2)CC1` [Compound 22R], the GI50 in series [1] is less than 20 nM. Moreover, the figures for the 50% inhibitory concentration (IC50) at MAP4K1 (HPK1) and at EGFR (T790M/L858R/C797S) were no more than 1 nM and 3 to 15 nM, respectively.
`CN(C)CCN1CCN2c3ccc(Nc4ncc(Cl)c(Nc5ccccc5P(C)(C)=O)n4)cc3OC[C@H]2C1` [Compound 14R]: the GI50 in series [1] lay in the range of 100 to 200 nM. Also, the values for the IC50 at EGFR (C797S), on MAP4K1 (HPK1) and on ALK were 50 to 250 nM, 1 to 10 nM and 50 to 250 nM, respectively.
Consider `CN(C)C/C=C/C(=O)N1CCN2c3ccc(Nc4ncc(Cl)c(Nc5ccccc5P(C)(C)=O)n4)cc3OC[C@H]2C1` [Compound 18R], for which the GI50 in series [1] lay within 100 to 200 nM. Besides, the 50% inhibitory concentration (IC50) at MAP4K1 (HPK1) was no more than 1 nM; at EGFR (T790M/L858R/C797S) it was less than 3 nM.
Take `CP(C)(=O)c1ccccc1Nc1nc(Nc2ccc3c(c2)OC[C@H]2CN(c4ccccc4)CCN32)ncc1Cl` [Compound 16R]: the IC50 on EGFR (C797S) fell in the range of 50 to 250 nM; at MAP4K1 (HPK1) it was 1 to 10 nM; on EGFR (T790M/L858R/C797S), 15 to 100 nM; on ALK it was 50 to 250 nM.
In the case of `CP(C)(=O)c1ccccc1Nc1nc(Nc2ccc3c(c2)OC[C@H]2CN(c4cccnc4)CCN32)ncc1Cl` [Compound 15R], the IC50 lay within 50 to 250 nM at EGFR (C797S), 1 to 10 nM on MAP4K1 (HPK1) and 50 to 250 nM at ALK.
Regarding `CP(C)(=O)c1ccccc1Nc1nc(Nc2ccc3c(c2)OC[C@H]2CN(C4CCNCC4)CCN32)ncc1Cl` [Compound 21R], the GI50 in series [1] is greater than 200 nM. Moreover, the results for the IC50 on MAP4K1 (HPK1) and at EGFR (T790M/L858R/C797S) were no more than 1 nM and less than 3 nM, respectively.
With `C=CC(=O)Nc1cc(Nc2ncc(Cl)c(Nc3ccccc3P(C)(C)=O)n2)cc2c1N1CCN(C)C[C@@H]1CO2` [Compound 29R], the GI50 in series [1] lay in the range of 20 to 100 nM. Also, the results for the IC50 at MAP4K1 (HPK1) and on EGFR (T790M/L858R/C797S) were no more than 1 nM and 3 to 15 nM, respectively.
For orientation: Cmax means the maximum level reached in the sampled fluid or tissue. By Tmax is commonly meant the time at which the peak concentration occurs. As usually defined, the half-life is the time needed for the level to fall by half in the phase considered. A high value points to slow loss. In the case of `CN1CCN2c3ccc(Nc4ncc(Cl)c(Nc5ccccc5P(C)(C)=O)n4)cc3OC[C@H]2C1` [Compound 1R], the GI50 in series [1] was less than 20 nM. Also, in series [2] (4 mg/kg), the highest level (Cmax) was 23.1 ng/mL, the Tmax came out at 1.08 h, the half-life is 12.7 h and the AUC(0-t) amounted to 102 ng·h/mL. In addition, the IC50 against EGFR (C797S) was 1 to 50 nM. For the same compound, the IC50 on ALK was in the range of 1 to 50 nM.
As for `Cc1cc(Nc2ncc(Cl)c(Nc3ccccc3P(C)(C)=O)n2)cc2c1OC[C@H]1CNCCN21` [Compound 24R], the GI50 in series [1] was 20 to 100 nM. The IC50 at MAP4K1 (HPK1) was 1 to 10 nM; at EGFR (T790M/L858R/C797S), 3 to 15 nM.
The corresponding values for `Cc1cc(Nc2ncc(Cl)c(Nc3ccccc3P(C)(C)=O)n2)cc2c1N1CCNC[C@H]1CO2` [Compound 23S] are less than 20 nM, no more than 1 nM and less than 3 nM.
As to `CC(=O)N1CCC(N2CCN3c4c(C)cc(Nc5ncc(Cl)c(Nc6ccccc6P(C)(C)=O)n5)cc4OC[C@@H]3C2)CC1` [Compound 32S], in series [1], the GI50 is 20 to 100 nM. In series [2] (3 mg/kg), the Cmax was found to be 352 ng/mL, the Tmax came to 3.33 h, the half-life was 2.22 h and the AUC(0-t) is 3260 ng·h/mL. Also, the IC50 at MAP4K1 (HPK1) was no more than 1 nM. Also, at EGFR (T790M/L858R/C797S), the IC50 is less than 3 nM.

Source of the values: patent publication US20220153766A1, “CONDENSED TRICYCLIC COMPOUND USED AS KINASE INHIBITOR” (Hangzhou Innogate Pharma Co., Ltd., priority 2019, published 2022).
